Assays:
[1] = test system: male Sprague-Dawley rats; test: Stomach weight (gastric emptying) after charcoal meal; format: in vivo, rat; conditions: morphine sulfate 1-10 mg/kg SC, 0.5 hour before charcoal meal; vs vehicle
Description: Morphine sulfate (1-10 mg/kg) or 0.9% normal saline (vehicle) was administered SC to the test subjects. 0.5 hour later, a charcoal meal (1 ml/100 grams) was administered PO to the test subjects. One hour after the charcoal meal, the test subjects were euthanized by CO2 and the stomachs were removed and weighed. Data were analyzed using a one-way ANOVA followed by the Dunnett's Multiple Comparisons test where *P<0.05, **P<0.01 and ***P<0.001. […] This effect was dose dependent with a greater magnitude of effect observed with increasing dose.

[2] = test system: male Sprague-Dawley rats; test: Rat hot plate assay; conditions: for hot plate MED (acute pain): 52° C., cutoff 30 seconds
Description: Morphine sulphate (1-10 mg/kg) was dissolved in 0.9% normal saline solution (NSS)(vehicle) and administered SC 1 hour prior to testing against vehicle. Data were analyzed by a two-way ANOVA using a Bonferroni Multiple Comparison Test,***P<0.001.
Morphine sulphate (1-10 mg/kg) was dissolved in 0.9% normal saline solution (NSS)(vehicle) and administered SC 1 hour prior to testing against vehicle. % MPE=Percent Maximum Possible Effect. % MPE=(test latency-baseline)/(cutoff-baseline). Data was analyzed using a Bonferroni Multiple Comparison Test,***P<0.001.
Morphine sulphate (10 mg/kg), the positive control, was dissolved in 0.9% NSS (vehicle). The formulations were administered SC 1 hour prior to testing against vehicle. Data were analyzed by a two-way ANOVA using a Bonferroni multiple comparisons test, where *P<0.05 and ***P<0.001. Data are represented as the means+S.E.M.
Morphine sulphate (10 mg/kg) was dissolved in 0.9% NSS (vehicle). The formulations were administered SC 1 hour prior to testing against vehicle. % MPE=Percent Maximum Possible Effect. % MPE=(test latency-baseline)/(cutoff (30 s)-baseline). Data were analyzed by a two-way ANOVA using Bonferroni Multiple Comparisons test for post-hoc analysis, where *P<0.05 and ***P<0.001. Data are represented as the means+SEM.
The positive control, morphine sulfate in 0.9% NS, was administered SC 1 hour prior to testing. Rats were assessed one day prior (BL) and then 1, 3 and 5 hours post-dosing. Hot Plate was set to 52° C. and cutoff was 30 seconds. Data were analyzed by a two-way ANOVA using a Bonferroni Multiple Comparisons Test, where *P<0.05, ***P<0.001 and ****P<0.0001 versus vehicle. Data are represented as the means+S.E.M from two combined studies.
Oxycodone hydrochloride (0.3-5 mg/kg) was dissolved in 0.9% normal saline solution (NSS)(vehicle) and administered SC 1 hour prior to testing against vehicle. Hot plate was set to 52° C. and cutoff was 30 seconds. Data were analyzed by a two-way ANOVA using a Bonferroni multiple comparisons test, where ****P<0.0001. Data are represented as the means+S.E.M.
Compound was administered SC 1 hour prior to testing. Oxycodone hydrochloride (0.3-5 mg/kg) was dissolved in 0.9% normal saline solution (NSS)(vehicle) and administered SC 1 hour prior to testing against vehicle. Hot plate was set to 52° C. and cutoff was 30 seconds. % MPE=. Percent Maximum Possible Effect. % MPE=(test latency-baseline)/(cutoff (30 s)-baseline). Data were analyzed by a two-way ANOVA using Bonferroni Multiple Comparisons test for post-hoc analysis, ****P<0.000. Data are represented as the means+SEM.
Oxycodone HCl was administered SC 1 hour prior to testing. Thermal latency was assessed the day prior (BL) and then 1, 3 and 5 hours post-oxycodone dosing. The hotplate was set to 52° C. and the cutoff was 30 seconds. Oxycodone was dissolved in 0.9% NS (vehicle). […] Data were analyzed by a two-way ANOVA using the Bonferroni Multiple Comparisons test for post-hoc analysis where, ***P<0.001. Data are represented as the means+SEM.
Oxycodone HCl was administered PO 1 hour prior to testing, while morphine sulfate, the positive control, was administered SC 1 hour prior to testing. Behavior was assessed the day prior (BL) and then 1, 3, 5 and 24 hours post-compound administration. The hot plate was set to 52° C. and the cutoff was 30 seconds. Oxycodone was dissolved in water (vehicle), while morphine sulfate was dissolved in 0.9% NS. Data were analyzed by a two-way ANOVA using a Bonferroni Multiple Comparisons Test, where ****P<0.0001.
Rats were assessed for thermal latency the day prior to dosing, then 1.5, 3 and 5 hours post-morphine administration. Data were analyzed by a two-way ANOVA using the Bonferroni Multiple Comparisons Test, where ****P<0.0001 compared to vehicle+vehicle. Data are represented as the means+S.E.M.

[3] = test system: male Sprague-Dawley rats; test: Rat tail flick assay; conditions: for tail flick MED (acute pain): intensity 40, cutoff 20 seconds
Description: Morphine sulphate (1-10 mg/kg) was dissolved in 0.9% normal saline solution (NSS)(vehicle) and administered SC 1 hour prior to testing against vehicle. Data were analyzed by a two-way ANOVA using a Bonferroni post-hoc test, *P<0.05, ***P<0.001.
Morphine sulphate (1-10 mg/kg) was dissolved in 0.9% normal saline solution (NSS)(vehicle) and administered SC 1 hour prior to testing against vehicle. % MPE=Percent of Maximum Possible Effect. % MPE=(test latency-baseline)/(cutoff(20 s)-baseline)*100. Data were analyzed by a two-way ANOVA using a Bonferroni post-hoc test, *P<0.05, **P<0.01, ***P<0.001.
Morphine sulphate (10 mg/kg) was dissolved in 0.9% NSS (vehicle). The formulations were administered SC 1 hour prior to testing against vehicle. Data were analyzed by a two-way ANOVA using a Bonferroni multiple comparisons test, *P<0.05, ***P<0.001.
Morphine sulphate (10 mg/kg) was dissolved in 0.9% NSS (vehicle). The formulations were administered SC 1 hour prior to testing against vehicle. % MPE=Percent Maximum Possible Effect. % MPE=(test latency-baseline)/(cutoff(20 s)-baseline)*100. Data were analyzed by a two-way ANOVA using a Bonferroni multiple comparisons test, ***P<0.001.
The positive control, morphine sulfate in 0.9% NS was administered SC 1 hour prior to testing. Rats were assessed the day prior (BL) and then 1, 3 and 5 hours post-dosing. Tail Flick was set to 40 intensity and cutoff 20 seconds. Data were analyzed by a two-way ANOVA using a Bonferroni Multiple Comparisons Test, where *P<0.05,***P<0.001 and ****P<0.0001. Data are represented as the means+S.E.M of two combined studies.
Oxycodone hydrochloride (0.3-5 mg/kg) was dissolved in 0.9% normal saline solution (NSS)(vehicle) and administered SC 1 hour prior to testing against vehicle. Data were analyzed by a two-way ANOVA using a Bonferroni multiple comparisons test, ****P<0.001.
Oxycodone hydrochloride (0.3-5 mg/kg) was dissolved in 0.9% normal saline solution (NSS)(vehicle) and administered SC 1 hour prior to testing against vehicle. % MPE=Percent Maximum Possible Effect. % MPE=(test latency-baseline)/(cutoff(20 s)-baseline)*100. Data were analyzed by a two-way ANOVA using a Bonferroni multiple comparisons test, ****P<0.001.
Oxycodone HCl and vehicle were administered SC 1 hour prior to testing. Rats were assessed one day prior (BL) and then 1, 3 and 5 hours post-oxycodone administration. The tail flick was set to an intensity of 40 and the cutoff was 20 seconds. Oxycodone was dissolved in 0.9% (vehicle). […] Data were analyzed by a two-way ANOVA followed by the Bonferroni Multiple Comparisons Test where, *P<0.05 and ****P<0.001.
Oxycodone HCl was administered PO 1 hour prior to testing, while morphine sulfate, the positive control, was administered SC 1 Hour prior to testing. Behavior was assessed the day prior (BL) to dosing, and then 1, 3, 5 and 24 hours post-compound administration. The tail flick was set to an intensity of 40 and 20 seconds was used as the cutoff. Oxycodone was dissolved in water (vehicle), while morphine was dissolved in 0.9% NS. Data were analyzed by a two-way ANOVA using a Bonferroni Multiple Comparisons Test, where *P<0.05, **P<0.01, ***P<0.001 and * * * *P<0.0001.
Rats were assessed for tail flick latency the day prior to dosing, then 1.5, 3 and 5 hours post-morphine administration. Data were analyzed by a two-way ANOVA using the Bonferroni Multiple Comparisons Test, where ****P<0.0001 compared to vehicle+vehicle. Data are represented as the means+S.E.M.
Rats were assessed for thermal latency 1.5, 3 and 5 hours post-morphine administration. % MPE=Percent Maximum Possible Effect. % MPE=(test latency-baseline)/(cutoff(20 s)-baseline)*100. Data were analyzed by a two-way ANOVA using a Bonferroni multiple comparisons test for post-hoc analysis where *P<0.05 and ****P<0.001. Data are represented as the means+SEM.
Rats were tested 1 hour after oxycodone injection.

[4] = test system: male Sprague-Dawley rats; test: Charcoal meal GI transit, opioid alone; conditions: for GI transit (% of the small intestine travelled by a charcoal meal): vs vehicle
Description: 0.5 hour later, a charcoal meal (1 ml/100 grams) was orally administered (PO) to the test subjects.
One hour after the charcoal meal, the test subjects were euthanized by CO2 and the gastrointestinal tract was removed from the stomach to the cecum. The length of the small intestine and the distance (cm) to the leading edge of the charcoal were recorded. Data were analyzed using a one-way ANOVA followed by the Dunnett's Multiple Comparisons test where *P<0.05, **P<0.01 and***P<0.001.
The length of the small intestine and the distance (cm) to the leading edge of the charcoal were recorded. Data were analyzed using a one-way ANOVA followed by Bonferroni's Multiple Comparisons Test where *P<0.05, **P<0.01 and ****P<0.001 vs. vehicle. Data are represented as the means+S.E.M.
One hour after charcoal, all rats were euthanized by CO2 and the GI tract was removed from the stomach to the cecum. The length of the small intestine and the distance (cm) to the leading edge of charcoal was recorded. Data were analyzed using a one-way ANOVA with Bonferonni's Post-Test where ****P<0.0001 vs. vehicle. Data are represented as the means+S.E.M.
One hour later, the rats were euthanized by CO2 and the gastrointestinal tract was removed from the stomach to the cecum. The length of the small intestine and the distance (cm) to the leading edge of charcoal were recorded. Data were analyzed using a one-way ANOVA followed by the Dunnett's Multiple Comparisons test where ***P<0.001. Data are represented as the mean+S.E.M.
Rats were dosed with Oxycodone HCl/Oxy or vehicle (water) PO once daily for 5 days (chronic). Additional groups were dosed only once on day 5 (acute). […] One hour after charcoal, all rats were euthanized by CO2 and the GI tract was removed from the stomach to the cecum. The length of the small intestine and the distance (cm) to the leading edge of charcoal was recorded. Data were analyzed using a one-way ANOVA with Bonferonni's Multiple Comparison Test where * P<0.05, ****P<0.0001 vs. vehicle (chronic), ### vs. oxycodone (acute). Data are represented as the means+S.E.M.

[5] = morphine sulphate 1-10 mg/kg SC 1 hour prior to testing
[6] = oxycodone hydrochloride 0.3-5 mg/kg SC 1 hour prior to testing

CN1CC[C@]23c4c5ccc(O)c4O[C@H]2[C@@H](O)C=C[C@H]3[C@H]1C5.O=S(=O)(O)O [morphine, morphine sulphate]
stomach weight (gastric emptying) [1]: increased stomach weight due to delayed gastric emptying
hot plate % MPE [2, 5]: increased % of the maximal possible effect
hot plate latency to nocifensive response [2, 5]: increased latency to nocifensive response
tail flick % MPE [3, 5]: increased % of the maximal possible effect
tail flick latency to nocifensive response [3, 5]: increased latency to nocifensive response
GI transit (% of the small intestine travelled by a charcoal meal) ([4]; morphine sulfate 1-10 mg/kg SC, 0.5 hour before charcoal meal): decreases gastrointestinal transit

COc1ccc2c3c1O[C@H]1C(=O)CC[C@@]4(O)[C@@H](C2)N(C)CC[C@]314.Cl [oxycodone, oxycodone hydrochloride]
rats found dead ([2]; oxycodone HCl 10 mg/kg SC, at the 3 hr time point): 4 out of 10
hot plate MED (acute pain) ([2]; oxycodone HCl PO): 10 mg/kg
hot plate MED (acute pain) ([2]; oxycodone HCl SC): 3 mg/kg
hot plate % MPE [2, 6]: increased % of the maximal possible effect
hot plate latency to nocifensive response [2, 6]: increased latency to nocifensive response
rats found dead ([3]; oxycodone HCl 10 mg/kg SC dosing group, at the 3 hr time point): 4 out of 10
tail flick MED (acute pain) ([3]; oxycodone HCl PO): 10 mg/kg
tail flick MED (acute pain) ([3]; oxycodone HCl SC): 3 mg/kg
tail flick % MPE [3, 6]: increased % of the maximal possible effect
tail flick latency to nocifensive response [3, 6]: increased latency to nocifensive response
tolerance to inhibition of GI transit on repeated dosing ([4]; oxycodone HCl PO once daily for 5 days (chronic) vs single dose on day 5 (acute)): produces some tolerances to its acute effect on the inhibition of GI transit
GI transit (% of the small intestine travelled by a charcoal meal) ([4]; oxycodone hydrochloride 0.3-5 mg/kg SC, 1 hour before charcoal meal): decreases gastrointestinal transit

From patent publication US10226457B2, “Systems and methods for treating an opioid-induced adverse pharmacodynamic response” (Purdue Pharma L.P., priority 2014, dated 2019)
